Common to all, as to type: binding
Test [1] addresses T1, RXRA:PPARG LBD heterodimer (Homo sapiens, UniProt P37231).
T1 sequence (P37231 231-505): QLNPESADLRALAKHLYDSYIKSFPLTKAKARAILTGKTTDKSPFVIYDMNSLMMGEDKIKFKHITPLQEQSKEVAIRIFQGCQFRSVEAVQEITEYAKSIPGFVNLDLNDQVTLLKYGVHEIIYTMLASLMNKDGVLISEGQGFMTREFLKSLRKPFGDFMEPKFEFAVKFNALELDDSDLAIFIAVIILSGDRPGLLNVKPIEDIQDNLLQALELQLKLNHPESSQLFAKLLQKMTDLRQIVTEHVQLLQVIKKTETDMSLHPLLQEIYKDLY
T1 sequence (P19793 228-462 partner): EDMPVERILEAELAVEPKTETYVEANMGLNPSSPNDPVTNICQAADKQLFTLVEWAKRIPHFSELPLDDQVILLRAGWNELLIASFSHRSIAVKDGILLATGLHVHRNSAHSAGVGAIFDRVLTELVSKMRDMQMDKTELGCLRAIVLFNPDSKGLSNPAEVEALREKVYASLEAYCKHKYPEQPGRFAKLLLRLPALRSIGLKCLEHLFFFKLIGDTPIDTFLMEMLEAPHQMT
The test can be described thus: TR-FRET NCOR1 ID2 peptide recruitment.

Test [2] has as its target T1, RXRA:PPARG LBD heterodimer. In words: TR-FRET MED1 LxxLL peptide blockade. A general note: Time-resolved FRET reads energy transfer from a long-lived donor to a nearby acceptor.
Test [3] addresses T2, PPARA/RXRA LBD heterodimer (Homo sapiens, UniProt Q07869).
T2 sequence (Q07869 196-468 limits assumed): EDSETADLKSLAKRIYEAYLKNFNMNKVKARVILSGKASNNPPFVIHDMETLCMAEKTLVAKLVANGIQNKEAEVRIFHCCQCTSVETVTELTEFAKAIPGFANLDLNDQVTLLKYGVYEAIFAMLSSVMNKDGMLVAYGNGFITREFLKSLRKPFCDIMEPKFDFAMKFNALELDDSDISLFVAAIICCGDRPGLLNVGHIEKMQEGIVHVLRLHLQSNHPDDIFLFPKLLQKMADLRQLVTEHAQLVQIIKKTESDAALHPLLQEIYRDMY
T2 sequence (P19793 228-462 partner): T1 sequence (P19793 228-462 partner)
In words: TR-FRET NCOR1 ID2 peptide recruitment.

In test [4] the target is T3, PPARD/RXRA LBD heterodimer (Homo sapiens, UniProt Q03181).
T3 sequence (Q03181 171-441 limits assumed): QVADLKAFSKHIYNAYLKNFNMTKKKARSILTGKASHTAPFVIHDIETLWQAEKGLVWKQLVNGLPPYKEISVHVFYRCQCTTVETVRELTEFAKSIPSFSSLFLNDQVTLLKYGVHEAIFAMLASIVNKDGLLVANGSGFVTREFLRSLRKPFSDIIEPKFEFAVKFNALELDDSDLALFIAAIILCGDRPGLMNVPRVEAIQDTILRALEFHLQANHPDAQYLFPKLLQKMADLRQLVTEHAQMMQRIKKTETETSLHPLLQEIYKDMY
T3 sequence (P19793 228-462 partner): T1 sequence (P19793 228-462 partner)
The test can be described thus: TR-FRET NCOR1 ID2 peptide recruitment.

As for `N#Cc1ccc(F)c(-c2cc(=O)c3c(F)cc(F)cc3[nH]2)c1` [FTX-6822, 3-(5,7-difluoro-4-oxo-1,4-dihydro-2-quinolyl)-4-fluorobenzonitrile], in test [1], the EC50 came out at 5 µM.

In test [2], `O=C(Nc1ccccc1)c1cc([N+](=O)[O-])ccc1Cl` [GW9662] came in with an IC50 of 0.097 ± 0.038 µM.

In test [1], `N#Cc1ccc(Br)c(-c2cc(=O)c3c(F)cc(F)cc3[nH]2)c1` [FTX-6713, 4-bromo-3-(5,7-difluoro-4-oxo-1,4-dihydroquinolin-2-yl)benzonitrile] gave an EC50 of 0.07 ± 0.008 µM.

As for `CS(=O)(=O)c1ccc(C#N)cc1-c1cc(=O)c2c(F)cc(F)cc2[nH]1` [FX-909, 3-(5,7-difluoro-4-oxo-1,4-dihydroquinolin-2-yl)-4-(methylsulfonyl)benzonitrile], the concentration giving a half-maximal response (EC50) is over 100 µM in test [3], over 100 µM in test [4] and 0.2 ± 0.03 µM in test [1].

Take `N#Cc1ccc(Cl)c(-c2cc(=O)c3c(F)cc(F)cc3[nH]2)c1` [FTX-6746, 4-Chloro-3-(5,7-difluoro-4-oxo-1,4-dihydroquinolin-2-yl)benzonitrile]: in test [1], the EC50 is 0.69 ± 0.07 µM. Moreover, in test [2], the IC50 was determined as 0.74 ± 0.16 µM.

As a reminder, the EC50 is the midpoint of the concentration-response curve. The low end stands for an effect from little substance, the high end for a need for much substance. The term IC50 denotes the concentration at which inhibition is half-maximal. The low end stands for higher potency, the high end for lower potency.

For the origin of these results see paper doi:10.1101/2025.05.08.652848v1 (biorxiv, 2025).
